Source: PubChem BioAssay (NCI)
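GI50: concentration for 50% inhibition of growth. TGI: concentration producing complete growth inhibition.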

Key:
Experiment in all cases: NCI tumour cell line growth inhibition, 384-well format
[1] = test system: NCI-H322M lung
[2] = test system: PC-3 prostate
[3] = test system: K-562 leukemia
[4] = test system: NCI-H23 lung
[5] = test system: UO-31 renal
[6] = test system: MALME-3M melanoma
[7] = test system: CAKI-1 renal
[8] = test system: HOP-62 NSCLC
[9] = test system: OVCAR-4 ovarian
[10] = test system: MDA-MB-231 breast
[11] = test system: SW-620 colon
[12] = test system: TK-10 renal
[13] = test system: BT-549 breast
[14] = test system: MDA-MB-435 melanoma
[15] = test system: SN12C renal
[16] = test system: SF-295 CNS
[17] = test system: CCRF-CEM leukemia
[18] = test system: IGROV1 ovarian
[19] = test system: RXF 393 renal
[20] = test system: EKVX NSCLC
[21] = test system: OVCAR-5 ovarian
[22] = test system: SF-539 CNS
[23] = test system: SF-268 CNS
[24] = test system: NCI-H226 lung
[25] = test system: OVCAR-8 ovarian
[26] = test system: U251 glioblastoma
[27] = test system: UACC-257 melanoma
[28] = test system: HCT-15 colon
[29] = test system: ACHN renal
[30] = test system: DU-145 prostate
[31] = test system: LOX IMVI melanoma
[32] = test system: NCI-H522 lung
[33] = test system: NCI/ADR-RES ovarian
[34] = test system: MOLT-4 leukemia
[35] = test system: HL-60(TB) leukemia
[36] = test system: 786-0 renal
[37] = test system: A498 renal
[38] = test system: MDA-MB-468 breast
[39] = test system: SK-MEL-28 melanoma
[40] = test system: SNB-19 CNS
[41] = test system: HT29 colon
[42] = test system: M14 melanoma
[43] = test system: A549 NSCLC
[44] = test system: MCF7 breast
[45] = test system: UACC-62 melanoma
[46] = test system: SNB-75 CNS
[47] = test system: HOP-92 NSCLC
[48] = test system: HS 578T breast
[49] = test system: KM12 colon
[50] = test system: SK-OV-3 ovarian
[51] = test system: RPMI-8226 leukemia
[52] = test system: HCT-116 colon
[53] = test system: OVCAR-3 ovarian
[54] = test system: T-47D breast
[55] = test system: SK-MEL-5 melanoma
[56] = test system: HCC-2998 colon
[57] = test system: NCI-H460 NSCLC

Q: What does the source list for Nc1nc(Cl)nc2c1ncn2C1CC(O)C(CO)O1 (centres undefined)?
A: GI50 [1]: 37500 nM; TGI [1]: > 100000 nM; GI50 [2]: > 100000 nM; TGI [2]: > 100000 nM; GI50 [3]: 428 nM; TGI [3]: > 100000 nM; GI50 [4]: 212 nM; TGI [4]: 481 nM; GI50 [5]: 372 nM; TGI [5]: 3850 nM; GI50 [6]: 308 nM; TGI [6]: > 100000 nM; GI50 [7]: 353 nM; TGI [7]: > 100000 nM; GI50 [8]: 236 nM; TGI [8]: 969 nM; GI50 [9]: > 100000 nM; TGI [9]: > 100000 nM; GI50 [10]: 481 nM; TGI [10]: > 100000 nM; GI50 [11]: 712 nM; TGI [11]: > 100000 nM; GI50 [12]: > 100000 nM; TGI [12]: > 100000 nM; GI50 [13]: 184 nM; TGI [13]: 977 nM; GI50 [14]: 743 nM; TGI [14]: > 100000 nM; GI50 [15]: 122 nM; TGI [15]: 926 nM; GI50 [16]: 11200 nM; TGI [16]: 34100 nM; GI50 [17]: 81.2 nM; TGI [17]: 206 nM; GI50 [18]: 14700 nM; TGI [18]: > 100000 nM; GI50 [19]: 47800 nM; TGI [19]: > 100000 nM; GI50 [20]: > 100000 nM; TGI [20]: > 100000 nM; GI50 [21]: 764 nM; TGI [21]: > 100000 nM; GI50 [22]: 2630 nM; TGI [22]: 12200 nM; GI50 [23]: 2890 nM; TGI [23]: 19800 nM; GI50 [24]: 3580 nM; TGI [24]: 18200 nM; GI50 [25]: 35.6 nM; TGI [25]: > 100000 nM; GI50 [26]: 825 nM; TGI [26]: 15800 nM; GI50 [27]: 1390 nM; TGI [27]: > 100000 nM; GI50 [28]: 395 nM; TGI [28]: > 100000 nM; GI50 [29]: 923 nM; TGI [29]: 5140 nM; GI50 [30]: 808 nM; TGI [30]: > 100000 nM; GI50 [31]: 1110 nM; TGI [31]: 3800 nM; GI50 [32]: 830 nM; TGI [32]: > 100000 nM; GI50 [33]: 135 nM; TGI [33]: > 100000 nM; GI50 [34]: 22.9 nM; TGI [34]: 59.6 nM; GI50 [35]: 35.3 nM; TGI [35]: 108 nM; GI50 [36]: 1280 nM; TGI [36]: > 100000 nM; GI50 [37]: 701 nM; TGI [37]: > 100000 nM; GI50 [38]: 3030 nM; TGI [38]: 16200 nM; GI50 [39]: 552 nM; TGI [39]: > 100000 nM; GI50 [40]: 738 nM; TGI [40]: > 100000 nM; GI50 [41]: 1370 nM; TGI [41]: > 100000 nM; GI50 [42]: 108 nM; TGI [42]: 448 nM; GI50 [43]: 434 nM; TGI [43]: > 100000 nM; GI50 [44]: 650 nM; TGI [44]: > 100000 nM; GI50 [45]: 177 nM; TGI [45]: 501 nM; GI50 [46]: 19900 nM; TGI [46]: 87800 nM; GI50 [47]: 9310 nM; TGI [47]: > 100000 nM; GI50 [48]: 70700 nM; TGI [48]: > 100000 nM; GI50 [49]: 994 nM; TGI [49]: > 100000 nM; GI50 [50]: 3010 nM; TGI [50]: > 100000 nM; GI50 [51]: 372 nM; TGI [51]: 1610 nM; GI50 [52]: 270 nM; TGI [52]: > 100000 nM; GI50 [53]: 2090 nM; TGI [53]: > 100000 nM; GI50 [54]: 6730 nM; TGI [54]: > 100000 nM

Q: Which results are given for CCn1cc(-c2ccnc3[nH]c(-c4cccc(CN(C)C)c4)cc23)c(-c2ccc(NC(=O)N(C)C)cc2)n1?
A: GI50 [1]: 3810 nM; TGI [1]: 15600 nM; GI50 [2]: 1680 nM; TGI [2]: 7380 nM; GI50 [3]: 1090 nM; TGI [3]: 2420 nM; GI50 [4]: 403 nM; TGI [4]: 2290 nM; GI50 [5]: 2670 nM; TGI [5]: 12000 nM; GI50 [6]: 1510 nM; TGI [6]: 3340 nM; GI50 [7]: 246 nM; TGI [7]: 1940 nM; GI50 [8]: 516 nM; TGI [8]: 7570 nM; GI50 [9]: 2260 nM; TGI [9]: 13900 nM; GI50 [10]: 1320 nM; TGI [10]: 7090 nM; GI50 [11]: 750 nM; TGI [11]: 2350 nM; GI50 [12]: 2610 nM; TGI [12]: 11600 nM; GI50 [13]: 293 nM; TGI [13]: 1770 nM; GI50 [14]: 1680 nM; TGI [14]: 5340 nM; GI50 [15]: 344 nM; TGI [15]: 3800 nM; GI50 [16]: 1910 nM; TGI [16]: 10000 nM; GI50 [18]: 1530 nM; TGI [18]: 10400 nM; GI50 [19]: 45.4 nM; TGI [19]: 2740 nM; GI50 [20]: 1110 nM; TGI [20]: 4860 nM; GI50 [21]: 1680 nM; TGI [21]: 4910 nM; GI50 [22]: 327 nM; TGI [22]: 2040 nM; GI50 [23]: < 10 nM; TGI [23]: 192 nM; GI50 [24]: 186 nM; TGI [24]: 1730 nM; GI50 [25]: 1620 nM; TGI [25]: 7510 nM; GI50 [26]: 1350 nM; TGI [26]: 2830 nM; GI50 [27]: 1360 nM; TGI [27]: 2710 nM; GI50 [28]: 1940 nM; TGI [28]: 9960 nM; GI50 [29]: 2230 nM; TGI [29]: 10700 nM; GI50 [30]: 2710 nM; TGI [30]: 14600 nM; GI50 [31]: 422 nM; TGI [31]: 1920 nM; GI50 [32]: 115 nM; TGI [32]: 1540 nM; GI50 [33]: 17600 nM; TGI [33]: 42400 nM; GI50 [34]: < 10 nM; GI50 [35]: < 10 nM; TGI [35]: 1370 nM; GI50 [36]: 1450 nM; TGI [36]: 5230 nM; GI50 [37]: 1180 nM; TGI [37]: 9520 nM; GI50 [55]: 1340 nM; TGI [55]: 2890 nM; GI50 [38]: < 10 nM; GI50 [39]: 1700 nM; TGI [39]: 4760 nM; GI50 [40]: 2410 nM; TGI [40]: 14200 nM; GI50 [56]: 1690 nM; TGI [56]: 4200 nM; GI50 [41]: 1000 nM; TGI [41]: 2310 nM; GI50 [42]: 1270 nM; TGI [42]: 3940 nM; GI50 [57]: < 10 nM; TGI [57]: 1340 nM; GI50 [44]: 843 nM; TGI [44]: 7150 nM; GI50 [45]: 755 nM; TGI [45]: 4340 nM; GI50 [46]: 483 nM; TGI [46]: 2220 nM; GI50 [47]: 449 nM; TGI [47]: 2720 nM; GI50 [48]: 1250 nM; TGI [48]: 3170 nM; GI50 [49]: 543 nM; TGI [49]: 2980 nM; GI50 [50]: 1010 nM; TGI [50]: 3410 nM; GI50 [51]: < 10 nM; TGI [51]: 1430 nM; GI50 [52]: 158 nM; TGI [52]: 1940 nM; GI50 [54]: 1420 nM; TGI [54]: 9450 nM
